We go through three compounds from patent US8518956B2, “1-(1-(2-ethoxyethyl)-3-ethyl-7-(4-methylpyridin-2-ylamino)-1H-pyrazolo[4,3-d]pyrimidin-5-yl) piperidine-4-carboxylic acid and salts thereof” (priority 2005, dated 2013).

Data set [1] in a line: Method 11: Single Dose Pharmacokinetics and Oral Bioavailability in Male Sprague-Dawley Rat. It is filed as in vivo. The settings on record: mean; for AUC(0-inf) / clearance / half-life / Vd / Cmax / Tmax: plasma, 2 mg/kg; for Vd: read-out: Vdss; for F: po 2 mg/kg vs iv 2 mg/kg. The protocol:
Repeat testing is recommended in order to establish a valid assay test result. P. Pharmacokinetic/Pharmacodynamic Study Method 11: Single Dose Pharmacokinetics and Oral Bioavailability in Male Sprague-Dawley Rat Following Intravenous and Oral Administration
An in vivo model can be used to evaluate the single dose pharmacokinetic properties and absolute oral bioavailability of a test compound. As described more specifically below, a test compound is administered to Sprague-Dawley (SD) rats either intravenously or orally in a crossover study design and the resulting pharmacokinetic properties and oral bioavailability are measured.
Male rats are administered a 2.0 mg/kg dose orally (n=2) by gavage as a suspension (0.5% methylcellulose/0.1% Tween 80 in distilled water). After a 72 hour wash-out periond, the same rats were administered 2.0 mg/kg dose bolus intravenously (n=2) as a solution (70% PEG 400/20% 0.05 M Citrate Buffer pH 3/10% Ethanol). Serial blood samples (for plasma) are collected from each rat over a 24 hour post dose for each route. […] Pharmacokinetic parameters of a test compound are determined from the plasma concentration-time data using non-compartmental methods. • LC/MS/MS: 1) Column: Hyperso; AQUASIL C-18 2.1×20 mm, 3.0 μm; 2) Mobile phase: Aqueous Water with 0.1% Formic Acid, Orgainic: Acetonitrile; Ionization: +ESI (API 4000). MRM: m/z 494.4→m/z 394.0 (Example 261 in WO2004096810), m/z 509.44→m/z 409.80 (Example 263 in WO2004096810), m/z 495.33→m/z 395.20 (Example 262 in WO2004096810). The detection limits are 0.12 ng/mL (Example 261 in WO2004096810), 1.3 ng/mL (Example 263 in WO2004096810) and 0.11 ng/mL (Example 262 in WO2004096810).
Watson (Version 6.4.0.04) is used to calculate mean test compound concentrations, corresponding standard deviations (SD), and percent coefficient of variation (% CV), and to estimate pharmacokinetic parameters (derived by noncompartmental methods) and associated statistics (mean, SD & CV %) if applicable. (Since n=2, no SD or CV calculated ?). Concentrations below the limit of quantitation (BLQ) are reported as zero (0) and are used in the evaluation of mean concentrations and the estimation of AUC. The peak plasma concentration (Cmax) and the time to reach peak concentration (tmax) are recorded directly from individual plasma concentration-time profiles. The terminal log-linear phase of the plasma concentration-time curve is identified by linear regression of data points. The terminal half-life (t1/2) is calculated as ln(2) divided by absolute value of the slope of the terminal log-linear phase. The area under the plasma concentration-time curve from time zero to time of the last quantifiable concentration (t) [AUC(0-t)] is determined using the linear trapezoidal method. The area under the plasma concentration-time curve from time zero to infinity [AUC(0-∞)] is determined as AUC(0-t) plus the extrapolated area. The extrapolated area is determined by dividing the last observed plasma concentration by the slope of the terminal log-linear phase. Systemic plasma clearance (CL) is calculated as dose/AUC(0-∞) while the volume of distribution at steady state (Vdss) is calculated as CL×MRT, where MRT (mean residence time) is defined as AUMC(0-∞)/AUC(0-∞). The absolute PO bioavailability (F) is calculated as a ratio of the dose-normalized AUC(0-∞) of individual animal after PO administration to the dose-normalized AUC(0-∞) of individual animal after IV administration given the crossover study design.

For data set [2], the target named is T1, PDE5 enzyme (Homo sapiens, UniProt O76074).
T1 construct: The PDE5 enzyme isolated from human platelets; from tissue; host or cells: human platelets
Nature of the data set: Method 1: Human Platelet PDE5 Enzyme Inhibition Scintillation Proximity Assay. In kind it is biochemical. The settings on record: METHOD 1: PDE5 IC50, Table B, WO2004096810 examples. A digest of the protocol:
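IC50 fitted from 10-point half-log dose-response curves run in duplicate, with inhibition relative to uninhibited controls. SPA beads capture [3H]GMP produced when platelet-derived PDE5 acts for 60 min at 30 °C on 500 nM cGMP (3:1 cold:labelled) in pH 7.4 Tris/MgCl2/BSA buffer.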
On the technique in general: In a scintillation proximity assay essentially only radioactivity close to the scintillant gives light.

As usually defined, the AUC(0-inf) is the area under the concentration-time curve extrapolated to infinity. By half-life is commonly meant how long it takes for the measured level to halve. A low value points to rapid decline. The Cmax is the highest concentration seen after dosing. As a reminder, the Tmax is the time at which the peak concentration occurs. By IC50 is commonly meant the concentration that inhibits the measured activity by half. Lower therefore signals greater potency in that assay. For `Cc1ccnc(Nc2nc(N3CCC(C(=O)O)CC3)nc3c(C)nn(CCOCC(F)(F)F)c23)c1` [WO2004096810 Example 261], in data set [1] (iv), the AUC(0-inf) was found to be 19000 ng·h/mL, the clearance was found to be 1.75 mL/min/kg, the half-life was 6.4 h and the Vd came out at 0.564 L/kg. In data set [1] (po), the AUC(0-inf) was determined as 20000 ng·h/mL, the Cmax was determined as 2350 ng/mL, the Tmax came to 0.67 h and the half-life is 6.7 h. This compound also gave a F in data set [1] of 105%. This compound gave an IC50 in data set [2] of 0.57 nM.
Take `Cc1cc(Nc2nc(N3CCC(C(=O)O)CC3)nc3c(C)nn(CCOCC(F)(F)F)c23)ncn1` [WO2004096810 Example 262]: in data set [1] (iv), the AUC(0-inf) amounted to 440 ng·h/mL, the clearance worked out at 76.3 mL/min/kg, the half-life was 5.5 h and the Vd is 6.11 L/kg. Also, in data set [1] (po), the AUC(0-inf) was 280 ng·h/mL, the Cmax was 87.1 ng/mL, the time of peak concentration (Tmax) turned out to be 0.67 h and the half-life is 3.4 h. Further, the F in data set [1] is 63.9%. This compound yielded an IC50 in data set [2] of 0.93 nM.
Consider `CCc1nn(CCOCC(F)(F)F)c2c(Nc3cc(C)ncn3)nc(N3CCC(C(=O)O)CC3)nc12` [WO2004096810 Example 263], for which, in data set [1] (iv), the AUC(0-inf) was determined as 555 ng·h/mL, the clearance was 60.1 mL/min/kg, the half-life was 4.5 h and the Vd is 5.07 L/kg. Besides, in data set [1] (po), the AUC(0-inf) was 329 ng·h/mL, the Cmax amounted to 102 ng/mL, the Tmax worked out at 0.33 h and the half-life is 3.8 h. This compound returned a F in data set [1] of 60.0%. In data set [2], this compound registered an IC50 of 0.27 nM.
